Measured values taken from patent US20230346948A1, “Lipid conjugated peptide inhibitors of PICK1” (University of Copenhagen, priority 2020, published 2023).

What was measured:
[1] = Small angle X-ray scattering, self-assembly in solution; type: physicochemical
Experimental: Concentration series of […] ranging from 0.18 mg/ml to 9.37 mg/mL was prepared in buffer containing 50 mM Tris (pH 7.4), 125 mM NaCl. Samples were measured at the P12 SAXS Beamline, […], Hamburg, Germany. Preliminary data reduction including radial averaging and conversion of the data into absolute scaled scattering intensity, I(q), as a function of the scattering vector q, where q=4π sin(θ)/λ ([…]=half scattering angle) were done using the standard procedures at the beamline. The modelling of the SAXS data was performed in two ways, firstly using the pair distance distribution function and subsequently using a molecular constrained core-shell model for polydisperse spheres. In brief, it was assumed that the peptide aggregated into polydisperse spherical micelles. Here, the hydrophobic tails form the core and these are surrounded by the hydrophilic part (the shell) in a spherical micelle. […] This was calculated by counting the number of electrons in the molecular structure and multiplying by the scattering length of the electron. For the scattering length density calculations, it was assumed that the molecular volume of the C13 alkyl chain was 377 Å3 as estimated from Tanfords empirical formula (V=27.4+26.9nC) where nC denote the number of carbons. i.e. 13 in this case. The hydrophilic headgroup was as a first estimate assumed to have a mass density corresponding to that of a soluble protein (i.e. 1.35 g/cm^3), this yielded a molecular volume of 2078 Å3. […] Excess scattering length densities were then calculated in relation to water (9.4e101/cm^2). Using this molecular restrained model, the volumes of the core and of the shell were coupled internally through the fitted aggregation number, Nagg. The polydispersity was described by a Gauss function of Nagg. The Gauss was truncated at ±3sigma. The model module “[…]” from the […] software was used for the fitting. As usual a small surface roughness and a small constant background was also necessary for the model to converge. Scattering data was merged; buffer subtracted and binned using WillItRebin with a binning factor of 1.02. The pair distance distribution functions (pddf) were fitted using bayesapp (http://www.bayesapp.org/) in the interval [0.0122-0.4] Å^-1, fitting parameters are reported in the data collection table below.

[2] = target: T1, PICK1 (Rattus norvegicus, UniProt Q9EP80); assay: Size exclusion chromatography of PICK1 in complex with inhibitor; conditions: 40 μM PICK1 with 10 μM inhibitor (4:1)
T1 construct: Full length rat PICK1 (pET41) was prepared as described earlier; inferred from pET41 vector and Glutathione-Sepharose capture) (N, cleaved yes); made in house; host or cells: E. coli BL21-DE3-pLysS
Experimental: Full length rat PICK1 (pET41) was prepared as described earlier (Madsen et al., 2005). In brief, PICK1 was expressed in BL21-DE3-pLysS cells and grown at 37° C., induced at OD600=0.6 with 1 mM Isopropyl β-D-1-thiogalactopyranoside (IPTG) and grown 16 hrs at 20° C. Cultures were harvested and re-suspended in 50 mM trisaminomethane (Tris), 125 mM NaCl, 2 mM Dithiothreitol (DTT, Sigma), 1% Triton X-100 (Sigma), 20 μg/mL DNAse 1 and 1⁄2 a tablet cOmplete protease inhibitor cocktail (Roche) pr. 1 L culture. The re-suspended pellets were frozen at -80° C. for later purification. […] Each column was sealed and 0.075 U/μL, Novagen® was added for cleavage 0/N at 4° C. under gentle rotation. PICK1 was eluted on ice and absorption at 280 nm was measured on TECAN plate reader or on a NanoDrop3000. The protein concentration was determined using lambert beers law (A=ε[…]=32320 (cm*mol/L)^-1. Size exclusion chromatography: Size exclusion chromatography was performed using an Äkta purifier with a Superdex200 Increase 10/300 column, where 500 μL of 40 μM PICK1 in absence or presence of 10 μM […] was loaded to the column. Absorbance profile was measured at 280 nm and plotted against elution volume using Graph Pad Prism 8.3.

[3] = system: neuropathic pain (SNI model); assay: Spared Nerve Injury (SNI) model of neuropathic pain, von Frey; type: in vivo, mice; conditions: for relief of evoked pain (paw withdrawal threshold): day 7 after SNI, tested 1-6 h
Experimental: Neuropathic pain. The SNI pain experiment was performed by Phenotype Expertise-Pain and CNS behaviour CRO under supervision of […]). Study was performed on 8 weeks old […] male mice (Charles River). The spared nerve injury surgery was performed on anaesthetized mice. Ligature and transection of the common peroneal and tibial distal branches of the sciatic nerve was performed, leaving the sural branch intact. […] The experimenter was blinded to mice treatment. […] All the compounds were diluted in PBS and administered s.c. at 10 μL/g. Statistical analysis was performed using GraphPad Prism 6.0. Two-way RM ANOVA followed by Bonferroni's post-hoc test. Significance level set to p<0.05. Neuropathic pain. Study was performed on 8 weeks old […] male mice (Charles River). The spared nerve injury surgery was performed on anaesthetized mice. Ligature and transection of the common peroneal and tibial distal branches of the sciatic nerve was performed, leaving the sural branch intact. […] The experimenter was blinded to mice treatment. […] All the compounds were diluted in PBS and administered 10 μmol/kg (10 μL/gram) […]. at 10 μL/g. Statistical analysis was performed using GraphPad Prism 6.0. Two-way RM ANOVA followed by Bonferroni's post-hoc test. Significance level set to p<0.05. Neuropathic pain. Study was performed on 8 weeks old […] male mice (Charles River). The spared nerve injury surgery was performed on anaesthetized mice. Ligature and transection of the common peroneal and tibial distal branches of the sciatic nerve was performed, leaving the sural branch intact. […] The mice were testes in von Frey monthly and the hyperalgesic response at 52 weeks was sustained. […] The experimenter was blinded to mice treatment. After injection, mechanical threshold was measured, 2 and 5 hrs. All the compounds were diluted in PBS and administered s.c. at 10 μL/g, 30 μmol/kg. Statistical analysis was performed using GraphPad Prism 6.0.

[4] = pair distance distribution function analysis

T1 sequence (Q9EP80 whole entry): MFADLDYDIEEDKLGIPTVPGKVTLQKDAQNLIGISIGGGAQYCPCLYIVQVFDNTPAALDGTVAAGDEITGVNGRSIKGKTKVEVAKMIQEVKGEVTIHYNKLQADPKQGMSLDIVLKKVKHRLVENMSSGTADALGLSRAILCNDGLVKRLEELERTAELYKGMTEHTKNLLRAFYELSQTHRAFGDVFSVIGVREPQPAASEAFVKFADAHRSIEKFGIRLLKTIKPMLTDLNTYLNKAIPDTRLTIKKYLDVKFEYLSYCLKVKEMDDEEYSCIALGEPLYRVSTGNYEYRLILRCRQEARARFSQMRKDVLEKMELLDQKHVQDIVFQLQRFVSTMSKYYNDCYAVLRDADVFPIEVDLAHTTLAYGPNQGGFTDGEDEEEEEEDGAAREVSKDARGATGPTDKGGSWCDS

Question: For `CCCCCCCCCCCCCC(=O)N(CCOCCOCCC(=O)N[C@@H](Cc1c[nH]cn1)C(=O)N[C@@H](Cc1c[nH]c2ccccc12)C(=O)N[C@@H](CC(C)C)C(=O)N[C@@H](CCCCN)C(=O)N[C@H](C(=O)O)C(C)C)CCOCCOCCC(=O)N[C@@H](Cc1c[nH]cn1)C(=O)N[C@@H](Cc1c[nH]c2ccccc12)C(=O)N[C@@H](CC(C)C)C(=O)N[C@@H](CCCCN)C(=O)N[C@H](C(=O)O)C(C)C` [myr-NPEG4-(HWLKV)2], which “n myr-NPEG4-(HWLKV)2, core shell model” value ([1]; 300 μM) is on record?
Answer: 19

Question: What about the “n myr-NPEG4-(HWLKV)2, core shell model” value ([1]; 400 μM) of the same compound?
Answer: 22

Question: What about the “n myr-NPEG4-(HWLKV)2, core shell model” value ([1]; 1000 μM) of the same compound?
Answer: 22

Question: And the “n myr-NPEG4-(HWLKV)2, core shell model” value ([1]; 3000 μM)?
Answer: 21

Question: What about the “n myr-NPEG4-(HWLKV)2, core shell model” value ([1]; 5000 μM) of the same compound?
Answer: 19

Question: And the “number of individual molecules per micelle” value ([1]; core-shell model)?
Answer: 19-22

Question: And the “outer radius of spherical core-shell micelle” value ([1]; core-shell model)?
Answer: 20-24 Å

Question: What about the “number of individual molecules per assembly” value [1, 4] of the same compound?
Answer: 5-8

Question: What about the “radius of gyration (Rg) of micellar structures” value [1, 4] of the same compound?
Answer: 20-23.6 Å

Question: What about the “oligomeric state of PICK1 upon binding (SEC elution volume)” value [2] of the same compound?
Answer: forms higher order oligomeric structures of PICK1 upon binding

Question: What about the “paw withdrawal threshold of uninjured contralateral paw” value ([3]; SNI model, Example 8) of the same compound?
Answer: remained unaltered

Question: What about the “relief of evoked pain (paw withdrawal threshold)” value ([3]; s.c. 2 μmol/kg) of the same compound?
Answer: no significant pain relief

Question: And the “relief of evoked pain (paw withdrawal threshold)” value ([3]; s.c. 10 μmol/kg)?
Answer: significant pain relief up to 3 hours post injection

Question: What about the “relief of evoked pain (paw withdrawal threshold), chronic pain” value ([3]; s.c. 30 μmol/kg, 52 weeks after SNI, tested 2 and 5 h) of the same compound?
Answer: highly significant effect of the treatment at 5 hrs
